Test results published in patent publication US11667919B2, “Targeting cancer-associated long non-coding RNAs” (University of Pittsburgh—Of the Commonwealth System of …, priority 2018, dated 2023).

Experiments:
Type in all cases: cell-based, human
MCF-7 and ZR-75-1 cells = experiment: Cell cycle assay (PI staining, flow cytometry); conditions: LNA against EPIC1, MCF-7 cells
Method: For the cell cycle assay, cells were collected, rinsed with PBS, and fixed for a minimum of 2 hr by adding 70% ice-cold ethanol at −20° C. Cells were then sequentially washed once in PBS and BD Pharmingen stain buffer (BD Biosciences, #554656). Cell pellets were resuspended in 0.5 ml of BD Pharmingen PI/RNase staining buffer (BD Biosciences, #550825) and incubated for 15 min at room temperature (RT), and cells were immediately analyzed using an LSRFORTESSA X-20 flow cytometer (BD Biosciences). The data were analyzed with FlowJo software.

Myc targets = experiment: Myc target expression after knockdown (RNA-seq, qRT-PCR, western blot); conditions: LNA against EPIC1, MCF-7 cells
Method: For RNA interference, cells were transfected with 40 nM siRNA targeting EPIC1, Myc, or a control siRNA using Lipofectamine RNAiMAX (ThermoFisher, #13778150) per the manufacturer's instructions. Total RNA was isolated 72 hr later for real-time PCR analysis. The siRNA sequences are SEQ ID NOS: 4-6.
For LNA transfection, cells were transfected with 40 nM LNA oligos targeting EPIC1, and a scramble control using Lipofectamine™ RNAiMAX per the guidelines. The LNA oligos (e.g., SEQ ID NO: 9) were designed and synthesized from Exiqon.
RNA Isolation and Quantitative Real-Time PCR (qRT-PCR) Assays: Total RNA was isolated from cultured cells using an RNeasy Mini kit (Qiagen, #74104) according to the manufacturer's instructions. cDNAs were synthesized from […] of total RNA using a High-Capacity cDNA Reverse Transcription Kit (Applied Biosystems, #4368813). Real-time PCR was performed with Power SYBR Green PCR Master Mix (Applied Biosystems, #4367659) on a QuantStudio 6 Flex Real-Time PCR System (Applied Biosystems). Relative gene expression was determined by DDCt normalized to GAPDH.
Cell lysates were also treated with equal volume of 2× SDS sample buffer and resolved by SDS-PAGE under denaturing conditions and transferred onto PVDF membranes (Bio-Rad, #162-0177). […]

[1] = test system: MCF-7, BT-474, ZR-75-1 and A549 cells; experiment: MTT growth inhibition by BET inhibitors in EPIC1 knockdown or overexpressing cells; conditions: EPIC1 overexpression; MCF-7 and A549 cells
Method: For RNA interference, cells were transfected with 40 nM siRNA targeting EPIC1, or control siRNA using Lipofectamine RNAiMAX (Thermo Fisher, #13778150) per the manufacturer's instructions. For quantitative real-time PCR (qRT-PCR) analysis, total RNA was isolated 72 h later using an RNeasy Mini kit (Qiagen, #74104) according to the manufacturer's instructions; cDNAs were synthesized from 0.5 μg of total RNA using a High-Capacity cDNA Reverse Transcription Kit (Applied Biosystems, #4368813). qRT-PCR was performed with Power SYBR Green PCR Master Mix (Applied Biosystems, #4367659) on a QuantStudio 6 Flex Real-Time PCR System (Applied Biosystems). Relative gene expression was determined by ΔΔCt normalized to GAPDH.
Validation of IncRNA-drug predictive pairs in cell lines. MCF-7 cells (MCF-7/Vector and MCF-7/EPIC1) and A549 cells (A549/Vector and A549/EPIC1) stably expressing an empty vector and EPIC1 were established with retroviral particles using the previously published method. […]
The ectopic expression level of EPIC1 in stable cells was confirmed using PCR. […] The absorbance value was measured at 570 nm using an xMark Microplate Spectrophotometer (Bio-Rad) with a reference wavelength of 630 nm and the IC50 of JQ-1 and I-BET-762 on cells was calculated, respectively.

Compound	cell-cycle analysis (MCF-7 and ZR-75-1 cells)	expression of Myc target genes (Myc targets)	resistance to BET inhibitor promoted by EPIC1 [1]
LNA: LNA oligo targeting EPIC1, e.g. SEQ ID NO: 9 (5′-GTCGACTCCTGCCGGA-3′), designed and synthesized from Exiqon (LNA oligo from Exiqon, LNA positions not given here)	significantly caused Gi arrest of MCF-7 cells	curtailed the expression of Myc target genes	–
(+)-JQ1 [JQ-1]	–	–	strongly promotes iBET762 and JQ-1 resistance
CCNC(=O)C[C@@H]1N=C(c2ccc(Cl)cc2)c2cc(OC)ccc2-n2c(C)nnc21 [iBET762, I-BET-762 (iBET762)]	–	–	strongly promotes iBET762 and JQ-1 resistance
